Measured values reported in US20240342152A1, “Method of Treatment” (Vanda Pharmaceuticals Inc., priority 2022, published 2024).

How the values were obtained:
[1] = test system: patients with bipolar I disorder; experiment: Phase III clinical study of iloperidone in acute manic and mixed episodes associated with bipolar I disorder; format: in vivo, adults
Protocol: In a Phase III clinical study of iloperidone as a treatment of acute manic and mixed episodes associated with bipolar I disorder, approximately 400 volunteers with a history of bipolar disorder and suffering from a current episode of mania are randomized to receive either iloperidone or placebo in a 1:1 ratio. Treatment efficacy is assessed using the Young Mania Rating Scale (YMRS), a known rating scale of clinical severity in the core symptoms of mania, as well as the Clinician Global Impression of Severity (CGI-S) and the Clinician Global Impression of Change (CGI-C).
YMRS assessments are made at baseline and during days 7, 10, 14, 21, and 28 using the following key: • 0=reports no decrease in sleep; • 1=sleeping less than normal amount by up to one hour; • 2=sleeping less than normal by more than one hour; • 3=reports decreased need for sleep; and • 4=denies need for sleep.
Patients receive four weeks of double-blind treatment comprising the administration of 24 mg/d iloperidone b.i.d. (12 mg twice daily), 12 mg/d b.i.d. (6 mg twice daily) for poor metabolizers, or placebo. CYP2D6 non-poor metabolizers are titrated to a clinical dose of 24 mg/day (12 mg twice daily) by administering 1 mg twice per day on day 1, 3 mg twice per day on day 2, 6 mg twice per day on day 3, 9 mg twice per day on day 4, and 12 mg twice per day on day 5 and each day thereafter. CYP2D6 poor metabolizers are titrated to 12 mg/day (6 mg twice daily) by administering 1 mg twice per day on day 1, 3 mg twice per day on day 2, and 6 mg twice per day on day 3 and each day thereafter.

[2] = test system: patients with schizophrenia; settings: patients continuing on therapy past the titration period; cited from earlier work
[3] = test system: adults with schizophrenia or bipolar I disorder; experiment: Clinical study of tolerability of faster iloperidone titration (orthostatic hypotension monitoring); format: in vivo; settings: n=12
Protocol: A clinical study of adults (n=12, age 18-65, inclusive) with schizophrenia or bipolar I disorder is conducted to assess the tolerability of a faster iloperidone titration scheme. Patients are assigned to one of two cohorts based on CYP2D6 phenotype.
CYP2D6 non-poor metabolizers are titrated to a clinical dose of 24 mg/day (12 mg twice daily) by administering 1 mg twice per day on day 1, 3 mg twice per day on day 2, 6 mg twice per day on day 3, 9 mg twice per day on day 4, and 12 mg twice per day on day 5. CYP2D6 poor metabolizers are titrated to 12 mg/day (6 mg twice daily) by administering 1 mg twice per day on day 1, 3 mg twice per day on day 2, and 6 mg twice per day on day 3. In each case, the target dose of 24 mg/day or 12 mg/day is continued until day 7.
Patients are monitored for OH by measuring blood pressure after lying supine for three minutes and two minutes after standing. OH is defined as a fall in systolic blood pressure of 20 mmHg or more or a fall in diastolic blood pressure of 10 mmHg or more.
The results are compared to historical placebo data from a prior study of the FDA-approved titration regimen.

[4] = endpoint (day 28), ITT population, N = 198

COc1cc(C(C)=O)ccc1OCCCN1CCC(c2noc3cc(F)ccc23)CC1 [Iloperidone, 1-[4-[3-[4-(6-fluoro-1,2-benzisoxazol-3-yl)-1-piperidinyl]propoxy]-3-methoxyphenyl]ethanone]
Sedation reported as treatment-emergent adverse event ([1]; N = 206): 5 (2.4) n (%) | Somnolence reported as treatment-emergent adverse event ([1]; N = 206): 11 (5.3) n (%) | Onset of statistically significant YMRS benefit versus placebo ([1]; YMRS assessment): as early as the end of week 2 | YMRS Total Score, Diff (iloperidone vs placebo) ([1]; day 28, ITT population, p-value 0.000008): −4.0 | CGI-C, Diff (iloperidone vs placebo) ([1]; day 28, ITT population, p-value 0.0002): −0.5 | CGI-S, Diff (iloperidone vs placebo) ([1]; day 28, ITT population, p-value 0.0005): −0.4 | MADRS Total Score, Diff (iloperidone vs placebo) ([1]; day 28, ITT population, p-value 0.1365): −0.9 | CGI-C [1, 4]: 2.3 | CGI-S, change from baseline [1, 4]: −1.5 | MADRS Total Score, change from baseline [1, 4]: −2.7 | YMRS Total Score, change from baseline ([1]; endpoint (day 28), ITT population, N = 198, 24 mg/d b.i.d. (12 mg/d for CYP2D6 poor metabolizers)): −14.0 | YMRS change associated with SNP rs62300864 (SHROOM3) ([1]; iloperidone-treated group (n=167), p 1.64 × 10^−6): 12.08 ± 2.43 | YMRS change associated with SNP rs55837573 (RELN) ([1]; iloperidone-treated group (n=167), p 2.48 × 10^−6): −4.61 ± 0.94 | YMRS change associated with SNP rs76876307 (FAT3) ([1]; iloperidone-treated group (n=167), p 5.27 × 10^−6): 15.44 ± 3.28 | YMRS change associated with SNP rs1118464 (NAV2) ([1]; iloperidone-treated group (n=167), p 6.98 × 10^−6): −4.15 ± 0.89 | YMRS sleep component, least squares mean change from baseline to day 28 ([1]; placebo −0.95, p=0.008): −1.26 | Efficacy in treating schizophrenia relative to haloperidol and risperidone [2]: comparable to that of haloperidol and risperidone | Tolerability of faster titration ([3]; compared to historical placebo data): well-tolerated | Patients meeting orthostatic hypotension (OH) criteria ([3]; faster titration to 24 mg/day (12 mg/day poor metabolizers), to day 7, OH = fall in systolic ≥20 mmHg or diastolic ≥10 mmHg): Only one patient receiving iloperidone met the OH criteria | Incidents of dizziness, syncope, or accidental trauma ([3]; faster titration, to day 7): no reported incidents of dizziness, syncope, or accidental trauma | Other adverse events ([3]; faster titration, to day 7): no other adverse events
